Where two headings read alike, the source gives them in different places.
Columns and labels:
[1] = biological target: T1, human RGS14 RGS-box (wild-type) (Homo sapiens, UniProt O43566); assay: Transcreener GDP RGScreen fluorescence polarization assay of RGS14 RGS-box GAP activity on Gαi1(DM); format: biochemical; conditions: for Ratio (RGS14 pIC50 / RGS12 pIC50): values > 1.0 reflect RGS14 selectivity
T1 construct: human RGS14 RGS-box (aa 46–195 of UniProt O43566); host or cells: E. coli
T1 sequence (O43566 46-195): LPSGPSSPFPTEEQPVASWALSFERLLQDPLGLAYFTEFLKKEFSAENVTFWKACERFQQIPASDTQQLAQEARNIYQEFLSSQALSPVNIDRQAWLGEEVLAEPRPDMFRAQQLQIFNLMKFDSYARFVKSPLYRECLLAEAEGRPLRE
Source text: (§1) We previously described work with BellBrook Labs creating the Transcreener GDP RGScreen fluorescence polarization assay of steady-state GTP hydrolysis, leveraging a double point-mutant in the Gα enzyme to make GTP hydrolysis, rather than GDP (product) release, the rate-limiting step for multiple rounds of GTP conversion ([57], [59]). […] Titrating inputs of the double point-mutant (“DM”) Gαi1 and RGS-box recombinant proteins (Fig. S2, B and C) established a robust, medium-throughput assay for evaluating potential RGS14 and RGS12 inhibitors, with “assay quality” Z′ scores ([60]) above 0.76 for each target (Fig. S2D).
(§2) Reagents and protocols for the fluorescence anisotropy-based Transcreener GDP RGScreen assay using a rate-altered, double point-mutant, recombinant Gαi1 protein have been extensively described previously ([43], [44]); reactions were always performed so that total GTP converted over the time course was consistently less than 10% of reaction maximum input. Specific methods for its application in assessing RGS14 and RGS12 GAP activity are summarized as follows. Open-reading frames (ORFs) encoding wild-type versions of the human RGS14 RGS-box (aa 46–195 of UniProt O43566) and human RGS12 RGS-box (aa 695–843 of UniProt O14924) were each sub-cloned in-frame with an N-terminal hexahistidine (His6) expression tag in the plasmid pET30a, expressed in E. coli cultures, and then purified by nickel-nitriloacetate (Ni-NTA) and size-exclusion (Superdex 200) column chromatographies by GenScript using previously described methods ([35]). These recombinant His6-tag fusion proteins were stored at −80 °C in storage buffer (150 mM NaCl, 50 mM Tris-HCl pH 8.0, 10% glycerol) before thawing and use. Cysteine-less versions were similarly produced by ORF site-directed mutagenesis: for RGS14, codons for cysteine residues 47 and 130 (numbered as in PDB id 2JNU) were replaced with serine codons; for RGS12, codons for cysteines 4, 51, 78, and 134 (numbered in relation to PDB id 2EBZ) were replaced with serine codons. Use of Transcreener GDP-detection reagents to assess compound inhibition of Naegleria fowleri Gα7 protein GTPase activity ([83]) has previously been described ([84]).

[2] = biological target: T2, human RGS12 RGS-box (wild-type) (Homo sapiens, UniProt O14924); assay: Transcreener GDP RGScreen fluorescence polarization assay of RGS12 RGS-box GAP activity on Gαi1(DM); format: biochemical; conditions: for IC50 / RGS12 pIC50: wild-type RGS12 RGS-box GAP activity, Gαi1(DM); for IC50: read-out: RGS12 pIC50 (converted)
T2 construct: human RGS12 RGS-box (aa 695–843 of UniProt O14924); host or cells: E. coli
T2 sequence (O14924 695-843): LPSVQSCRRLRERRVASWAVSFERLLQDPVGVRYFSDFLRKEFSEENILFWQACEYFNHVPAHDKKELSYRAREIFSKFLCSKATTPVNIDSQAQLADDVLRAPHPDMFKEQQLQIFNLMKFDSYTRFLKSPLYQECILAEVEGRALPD
Source text: as §1, §2

[3] = wild-type RGS14 RGS-box GAP activity, Gαi1(DM), Transcreener GDP RGScreen, read-out: RGS14 pIC50 (converted)
[4] = wild-type RGS14 RGS-box GAP activity, Gαi1(DM), Transcreener GDP RGScreen

Row | Ratio (RGS14 pIC50 / RGS12 pIC50) [1] | IC50 [1, 3] | IC50 [2] | Compound | also measured
1 | 1.00 |  |  | Cc1ccc(C2=Nn3c(COc4ccc(Cl)cc4)nnc3SC2CC(=O)O)cc1 (stereo not shown) [Z90276194] | RGS14 pIC50 [1, 4]: 4.21; RGS12 pIC50 [2]: 4.21
2 | 0.87 | 646 µM | 224 µM | COc1ccc(OCc2nnc3n2N=C(c2cccc(N4CCCC4=O)c2)CS3)cc1 [Z667824974] | 
3 | 0.91 | 100 µM | 40.7 µM | COC(=O)C1Sc2nnc(COc3ccc(F)cc3)n2N=C1c1cc2ccccc2o1 (stereo not shown) [Z8201263931] | 
4 | 0.96 | 93.3 µM | 61.7 µM | O=C(O)C[C@@H]1Sc2nnc(-c3ccco3)n2N=C1c1ccc(F)cc1 [Z90276391] | 
5 | 0.94 | 107 µM | 61.7 µM | CSc1nnc2n1N=C(c1ccc(NC(=O)C(C)C)cc1)[C@H](C)S2 [Z90277842] | 
6 | 0.94 |  | 42.7 µM | O=C(O)C[C@@H]1Sc2nnc(COc3ccc(Cl)cc3)n2N=C1c1ccccc1 [Z90276197, 2-{3-[(4-chlorophenoxy)methyl]-6-phenyl-5H-[1,2,4]triazolo[3,4-b][1,3,4]thiadiazin-7-yl}acetic acid] | IC50 ([1]; wild-type RGS14 RGS-box, Transcreener GDP RGScreen, read-out: IC50 against RGS14 RGS-box GAP activity): 81 µM
7 | 0.96 | 30.2 µM | 18.6 µM | COc1ccc(-c2nnc3n2N=C(c2ccc(NC(C)=O)cc2)[C@@H](C)S3)cc1OC [Z90277200] | 
8 | 1.08 | 20.4 µM | 44.7 µM | O=C(O)CC1Sc2nnc(C3COc4ccccc4O3)n2N=C1c1cccs1 (stereo not shown) [Z90275816] | 
9 | 0.92 | 91.2 µM | 41.7 µM | O=C(O)CC1Sc2nnc(C3CC3)n2N=C1c1ccc(F)cc1 (stereo not shown) [Z90274599] | 
10 | 0.93 | 61.7 µM | 30.2 µM | C1CC[C@H]2Sc3nnc([C@H]4CCCO4)n3N=C2C1 [Z90278035] | 
11 | 1.14 | 27.5 µM | 100 µM | COC(=O)C1Sc2nnc(COc3ccc(OC)cc3)n2N=C1c1cccc(N2CCCC2=O)c1 (stereo not shown) [Z7976707565] | 
12 |  | ~200 µM | 63.1 µM | CC(Sc1n[nH]c2nc3ccccc3n12)C(=O)c1c(F)cc(F)cc1F (stereo not shown) [Z1098346193, 2-(2,4,5,7-tetraaza-tricyclo[6.4.0.0²,⁶]dodeca-1(12),3,5,8,10-pentaen-3-ylsulfanyl)-1-(2,4,6-trifluorophenyl)propan-1-one] | 
13 | 1.00 | 79.4 µM | 83.2 µM | O=C(O)C[C@@H]1Sc2nnc(-c3ccco3)n2N=C1c1ccccc1 [Z90276389] | 
14 | 0.91 |  |  | O=C(O)CC1Sc2nnc(Cc3ccc(Br)cc3)n2N=C1c1ccc(Cl)cc1 (stereo not shown) [Z90276771] | RGS14 pIC50 [1, 4]: 4.53; RGS12 pIC50 [2]: 4.96
15 | 1.00 | 170 µM | 174 µM | COc1cccc(OCc2nnc3n2N=C(c2ccccc2)[C@H](CC(=O)O)S3)c1 [Z90278437] | 
16 | 1.07 | 56.2 µM | 107 µM | O=C(O)CC1Sc2nnc(C3CCCO3)n2N=C1c1ccc(Cl)cc1 (stereo not shown) [Z90278051] | 
17 | 0.87 | 219 µM | 64.6 µM | COc1ccc(OCc2nnc3n2N=C(c2cc(C)n(-c4nccs4)c2C)CS3)cc1 [Z667824954] | 
18 | 0.85 | 275 µM | 66.1 µM | Cc1ccc(C2=Nn3c(nnc3C3CC3)SC2CC(=O)O)cc1 (stereo not shown) [Z90274594] | 
19 |  | > 1000 µM |  | COc1ccc2nc(SC(C)C(=O)c3ccc(F)cc3F)[nH]c2c1 (stereo not shown) [Z167736700] | 
20 |  | > 1000 µM |  | CCn1c(SC(C)C(=O)c2c(F)cc(F)cc2F)nc2ccccc21 (stereo not shown) [Z1098345881] | 
21 |  | > 1000 µM |  | COc1ccc2nc(SC(C)C(=O)N(C)C)[nH]c2c1 (stereo not shown) [Z92077129] | 

Continued, compound first:

Row | Compound | Ratio (RGS14 pIC50 / RGS12 pIC50) [1] | IC50 [1, 3] | IC50 [2] | also measured
22 | CCCc1ccc(C2=Nn3c(COc4ccccc4F)nnc3SC2)cc1 [Z55660462] | 0.96 | 16.6 µM | 10.5 µM | 
23 | COc1ccc(Cc2nnc3n2N=C(c2ccc(C)c(C)c2)[C@@H](C)S3)cc1OC [Z55660805] | 0.91 | 75.9 µM | 29.5 µM | 
24 | O=c1[nH]c(-c2ccc(C(F)(F)F)cc2)nn1-c1cc(Cl)ccc1O [BMS-192364, reference compound] |  |  |  | inhibition of RGS14 RGS-box GAP activity (in words) ([1]; Transcreener GDP RGScreen): inactive; inhibition of RGS12 RGS-box GAP activity (in words) [2]: inactive
25 | Cc1ccc(C2=Nn3c(COc4ccc(Cl)cc4)nnc3SC2)c(C)c1 [Z55660524] | 0.82 | 170 µM | 26.9 µM | 
26 | C[C@H]1Sc2nnc(Cc3ccc(Br)cc3)n2N=C1c1ccc(NS(C)(=O)=O)cc1 [Z90276813] | 0.85 | 72.4 µM | 13.5 µM | 
27 | CCN(CC)S(=O)(=O)c1cccc(-c2nnc3n2N=C(c2ccc(C)cc2)C(CC(=O)O)S3)c1 (stereo not shown) [Z90274338] | 1.14 | 93.3 µM | 288 µM | 
28 | CC1Sc2nnc(Cc3ccc(Br)cc3)n2N=C1c1ccc(Cl)cc1 (stereo not shown) [Z55660592] | 0.93 | 21.4 µM | 10 µM | 
29 | CC(C)(C)c1ccc(C2=Nn3c(nnc3-c3ccco3)SC2)cc1 [Z55660110] |  | 56.2 µM | 53.7 µM | 
30 | COc1cccc(C2=Nn3c(COc4ccc(Cl)cc4)nnc3SC2)c1 [Z55660496] | 0.85 | 191 µM | 42.7 µM | 
31 | COc1ccc(Cc2nnc3n2N=C(c2ccccc2)C(C)S3)cc1OC (stereo not shown) [Z55660788] | 0.90 |  |  | RGS14 pIC50 [1, 4]: 4.03; RGS12 pIC50 [2]: 4.50
32 | Cc1ccc(C2=Nn3c(COc4ccccc4)nnc3SC2)c(C)c1 [Z55659515] |  | 4.07 µM | 4.07 µM | 
33 | COc1ccc(OCc2nnc3n2N=C(c2ccc(C)cc2)[C@@H](C)S3)cc1 [Z55660052] | 0.86 | 20.4 µM | 3.63 µM | 
34 | c1ccc2c(c1)OC[C@@H](c1nnc3n1N=C(c1ccc4c(c1)OCCO4)CS3)O2 [Z55660304] | 0.90 | 28.8 µM | 8.71 µM | 
35 | COc1ccc(OCc2nnc3n2N=C(c2ccc(NC(C)=O)cc2)CS3)cc1 [Z55660046] |  | > 1000 µM | 155 µM | 
36 | CC(C)c1nnc2n1N=C(c1cc3ccccc3o1)CS2 [Z55627782] | 0.82 | 191 µM | 27.5 µM | 
37 | FC(F)Oc1ccc(C2=Nn3c(COc4ccccc4)nnc3SC2)cc1 [Z56840012] | 0.90 | 36.3 µM | 11.5 µM | 
38 | CCn1c(SC(C)C(=O)c2ccc(F)cc2)nc2cc(S(N)(=O)=O)ccc21 (stereo not shown) [Z51419107] |  | > 1000 µM |  | 
39 | CCc1ccc(C(=O)C(C)Sc2nc3cc(C)ccc3[nH]2)cc1 (stereo not shown) [Z18443315] |  | > 1000 µM |  | 
40 | CCOc1ccc(C(=O)C(C)Sc2nc3cc(S(N)(=O)=O)ccc3n2CC)cc1 (stereo not shown) [Z51419689] |  | > 1000 µM |  | 
41 | COc1ccc2nc(SC(C)C(=O)Nc3ccc(C)cc3)[nH]c2c1 (stereo not shown) [Z16077036] |  | > 1000 µM |  | 
42 | COc1ccc2nc(SC(C)C(=O)c3ccc(OC(F)F)cc3)[nH]c2c1 (stereo not shown) [Z16077231] |  | > 1000 µM |  | 
43 | COc1ccc2nc(SC(C)C(=O)c3ccc(F)c(F)c3)[nH]c2c1 (stereo not shown) [Z16077536] |  | > 1000 µM |  | 
44 | CCOc1ccc2nc(SCC(=O)c3ccc(CC)cc3)[nH]c2c1 [Z55030990] |  | > 1000 µM |  | 
45 | CC(Sc1nc2ccccc2n1C)C(=O)c1ccc(NS(C)(=O)=O)cc1 (stereo not shown) [Z50932699] |  | > 1000 µM |  | 
46 | COc1ccc(C(=O)C(Sc2nc3ccccc3n2C)c2ccc(OC)cc2)cc1 (stereo not shown) [Z15478257] |  | > 1000 µM |  | 

From PMC12495443, “Developing inhibitors of the guanosine triphosphate hydrolysis accelerating activity of Regulator of G protein Signaling-14 [drawing 1]” (The Journal of Biological Chemistry, 2025)
